{"source": "patent US20120040920A1", "about": "“OLIGOSACCHARIDE ALDONIC ACIDS AND THEIR TOPICAL USE” (priority 1999, published 2012)", "key": {"[1]": {"test_system": "chronic gum disease of bleeding", "experiment": "oral gurgling treatment of chronic gum disease", "assay_type": "in vivo, human", "conditions": "5% in molecular complex with 1% L-arginine, pH 3.3, gurgling twice daily, one week, person", "procedure": "Lactobionic acid 50% aqueous solution 10 g was diluted with 60 ml water and 10 ml propylene glycol, and the solution had pH 2.1. L-Arginine 5% solution 20 g prepared from 8 parts water and 2 parts propylene glycol by volume was added to form molecular complex of amphoteric system as shown by the increase of pH to 3.3. The composition thus formulated contained 5% lactobionic acid in molecular complex with 1% L-arginine.\nA subject, having chronic gum disease of bleeding during the tooth brushing, used the above bionic acid complex composition twice daily as a gurgling solution with at least one minute of contact time in oral cavity. No food or drink was taken for the next 30 minutes."}, "[2]": {"experiment": "gel matrix formation on evaporation of an aqueous solution at room temperature", "assay_type": "physicochemical", "from_the_text": "In contrast to an alpha hydroxyacid and polyhydroxyacid, an oligosaccharide aldonic acid can form a gel matrix when its aqueous solution is evaporated at room temperature. The transparent gel obtained retains certain amount of water forming a clear gel matrix. The amount of water retention depends on individual oligosaccharide aldonic acid. Examples of gel matrix preparations are provided below.\nIn one example, a gel matrix can be formed when aqueous solution comprising an oligosaccharide aldonic acid is evaporated at room temperature. The transparent gel thus obtained retains certain amount of water forming a clear gel matrix. The amount of water retention depends on individual oligosaccharide aldonic acid. For example, maltobionic acid 1 g in a beaker was dissolved in water 1 ml, and the solution thus obtained was left at room temperature. Fifty percent of the original water had been evaporated at the end of 24 hours, and 57% at the end of 48 hours, and 60% at the end of 72 hours, and no more or minimal evaporation of water could be detected after 72 hours. A clear gel film thus obtained contained 29% water complexed with maltobionic acid molecules. In the same manner, lactobionic acid formed a clear gel matrix with 14% water molecules and cellobionic acid formed a transparent gel with 7% water molecules.\nA typical experiment to determine a gel matrix formation of an oligosaccharide aldonic acid may be carried out as follows.\nMaltobionic acid 1 g in a beaker of 3.6 cm diameter and 3.6 cm height was dissolved in water 1 ml, and the solution thus obtained was left at room temperature between 20-25° C. to allow a slow evaporation of the water. […] The continuous transparent film thus obtained consisted of 71% maltobionic acid and 29% water by weight, and was formed as a complex gel matrix between maltobionic acid molecules and water molecules."}, "[3]": {"test_system": "circular wounds 0.5 mm in depth", "experiment": "healing of circular 4 mm biopsy punch wounds on forearm", "assay_type": "in vivo, human", "conditions": "2% in distilled water", "from_the_text": "A sterile 4 mm skin biopsy punch was used to make two circular wounds 0.5 mm in depth on alcohol-swabbed left forearm of a healthy subject. The wounds were swabbed dry with cotton balls. A control solution containing 0.9% sodium chloride in distilled water was applied to one circular wound, and a test solution containing 2% lactobionic acid in distilled water was applied to the other circular wound. Both wounds were covered with 3M Tegaderm tapes for five days. […] The erythema disappeared from both skin sites at the end of nine days."}, "[4]": {"test_system": "skin fissures (open cuts)", "experiment": "topical treatment of skin fissures at finger tips", "assay_type": "in vivo, human", "conditions": "10% oil-in-water cream twice daily, person", "procedure": "A subject, having two skin fissures (open cuts) 2-3 mm long at the finger tips, extending from the hyponychia, topically applied twice daily lactobionic acid 10% oil-in-water cream to one fissure for one week. The other fissure was treated with a vehicle control."}, "[5]": {"test_system": "scrotum and perineum itch", "experiment": "topical treatment of scrotum and perineum itch", "assay_type": "in vivo, human", "conditions": "18% oil-in-water cream pH 2.0, person", "from_the_text": "Lactobionic acid 54% aqueous solution 30 g was uniformly mixed with an oil-in-water base 60 g. The cream thus prepared had pH 2.0 and contained 18% lactobionic acid.\nA subject, having a lasting scrotum and perineum itch after each time taking a shower topically applied the above bionic acid cream to the affected areas of the skin."}, "[6]": {"experiment": "antioxidant property, hydroquinone test method", "assay_type": "physicochemical", "conditions": "oil-in-water cream, 2% hydroquinone, test substance 0.4 M, room temperature, 5 days", "from_the_text": "(§1) An antioxidant may be defined as a substance capable of preventing or inhibiting oxidation. […] The antioxidant property is readily determined by using any one of the following test methods: prevention or retardation of air oxidation of (a) anthralin, (b) hydroquinone, or (c) banana peel. A freshly prepared anthralin solution or cream is bright yellow, and an air oxidized one is brownish or black. A hydroquinone solution or cream is colorless or white color, and an air oxidized one is brownish or black. A freshly peeled banana peel is light yellow in color and an oxidized one ranges in color from tan, dark tan, brown to brownish black.\nAntioxidant property of an oligosaccharide aldonic acid may also be determined by utilizing hydroquinone test method as follows. Hydroquinone also known as 1,4-dihydroxybenzene is a white powder, and a composition containing hydroquinone without a suitable antioxidant is chemically unstable even at room temperature. For example, hydroquinone 2% in an oil-in-water cream changed in color from white to grey within 2 hours, and the cream became light brown within 48 hours and dark brown after 72 hours at room temperature."}, "[7]": {"experiment": "antioxidant property, anthralin test method", "assay_type": "physicochemical", "from_the_text": "as §1\nAntioxidant property of an oligosaccharide aldonic acid may be determined by utilizing anthralin test method as follows.\nAnthralin also known as dithranol is a yellowish powder, and a composition containing anthralin without a suitable antioxidant is chemically unstable even at room temperature. For example, anthralin 0.05% in an oil-in-water cream changed in color from yellow to gray within 24 hours at room temperature, and the cream became brownish within 48 hours. Under anhydrous condition, anthralin 0.05% ointment prepared from white petrolatum 2 parts and mineral oil 1 part by weight changed in color from bright yellow to grayish yellow within 24 hours, and the ointment became brownish after 12 days at room temperature.\nBased on the above observations, an oil-in-water cream containing 0.4% anthralin with or without a known antioxidant was used as a positive or vehicle control."}, "[8]": {"test_system": "contact dermatitis or erythema", "experiment": "topical treatment of facial erythema caused by glycolic acid cream", "assay_type": "in vivo, human", "conditions": "5% partially neutralized cream, three applications over 24 hour period, person; control side persisted", "from_the_text": "A subject, developed contact dermatitis or erythema on their face after topical applications of 20% unneutralized glycolic acid cream. They applied 5% partially neutralized lactobionic acid cream on the left side of their face and a control cream on the right side of their face."}, "[9]": {"test_system": "linear wounds 1 cm in length and 0.5 mm in depth", "experiment": "healing of linear needle wounds on forearm", "assay_type": "in vivo, human", "conditions": "2% in distilled water", "from_the_text": "A sterile 22-gauge needle was held in the jaws of a surgical needle holder, and two linear wounds 1 cm in length and 0.5 mm in depth were made on alcohol-swabbed left forearm of a healthy subject. The wounds were swabbed dry with cotton balls. A control solution containing 0.9% sodium chloride in distilled water was applied to one wound, and a test solution containing 2% lactobionic acid in distilled water was applied to the other wound. Both wounds were covered with 3M Tegaderm tapes for five days. […] The erythema disappeared from both skin sites at the end of nine days."}, "[10]": {"conditions": "by weight, 1 g acid in 1 ml water evaporated at room temperature"}, "[11]": {"conditions": "covered five days, end of one week, saline control not epithelialized"}}, "data": [{"compound": "O=C(O)[C@H](O)[C@@H](O)[C@H](O[C@@H]1O[C@H](CO)[C@H](O)[C@H](O)[C@H]1O)[C@H](O)CO", "note": "[lactobionic acid]", "values": [{"measurement": "gum bleeding during tooth brushing", "setting": "[1]", "value": "gum bleeding stopped or became less noticeable"}, {"measurement": "gel matrix formation", "setting": "[2]; 1 g in 1 ml water, 20-25° C., slow evaporation", "value": "clear continuous gel film was formed"}, {"measurement": "acid content of the gel film", "setting": "[2]; [10]", "value": 86, "unit": "%"}, {"measurement": "water retained in the gel film (gel matrix)", "setting": "[2]; [10]", "value": 14, "unit": "%"}, {"measurement": "wound healing", "setting": "[3]; [11]", "value": "healed with re-epithelialization"}, {"measurement": "time to disappearance of erythema", "setting": "[3]; same at control site", "value": "nine"}, {"measurement": "healing of skin fissure", "setting": "[4]; after a week, vehicle site unhealed", "value": "skin fissure healed completely"}, {"measurement": "pain of skin fissure", "setting": "[4]", "value": "pain disappeared after a few days"}, {"measurement": "itch", "setting": "[5]", "value": "itch stopped immediately"}, {"measurement": "colour change of hydroquinone cream", "setting": "[6]", "value": "did not change color"}, {"measurement": "antioxidant grade", "setting": "[7]; anthralin and hydroquinone test methods", "value": "moderate antioxidant"}, {"measurement": "colour change of anthralin cream", "setting": "[7]; oil-in-water cream, 0.4% anthralin, test substance 0.1 M, 24 hours", "value": "did not change the color"}, {"measurement": "erythema of facial skin", "setting": "[8]", "value": "improved substantially and the erythema became less noticeable"}, {"measurement": "wound healing", "setting": "[9]; [11]", "value": "healed with re-epithelialization"}, {"measurement": "time to disappearance of erythema", "setting": "[9]; same at control site", "value": "nine"}]}]}
